From patent US20240336567A1, “PESTICIDAL AND HERBICIDAL COMPOUNDS AND METHODS OF USE THEREOF” (AG Plenus Ltd, priority 2021, published 2024)

Key:
[1] = system: ECHCO; assay: In-planta LTP post-emergence, visual phenotype; format: in vivo, Echinochloa colona; conditions: monocot
Experimental: (§1) A basic panel of eight weed species (Table 3) sowed in 4×4×7 cm plastic pots containing a garden mix (klasmann). Each specie was sowed in a separate pot. In each pot, 10-15 seeds were sowed according to the specie viability. Timing of application determined at a 1-2 true leaf stage. The plants grew for 30 days in a controlled greenhouse (26±2° C. day, 20±2° C. night). Hood irrigation (tap water+Shefer 5:3:8 8 mM) was given at a 50% water content by weight. Two days before application, the tested plants thinned down to three plants per pot. Compounds were soluble in water (DDW), and commercial herbicide control was soluble in formulation B (Table 4). […] Plants were evaluated at 3 time points (4, 8, 12 days after application (DAA)). At each time point, visual phenotyping was recorded using a scale of 0-6 (0: no visible effect, 6: maximum effect). […]
(§2) Post-emergence advanced dose response experiment included 4 species: SETVI, ECHCO, AMAPA, ABUTH (Tables 3, 5). […] Plants were evaluated at 4 time points (6, 12, 18 and 26 DAA). At each time point, visual phenotyping was recorded using a scale of 0-6 (0: no visible effect, 6: maximum effect). […]
(§3) Post-emergence advanced wide panel experiment included 24 weed species (Table 5). […] Visual phenotyping was recorded at 4, 11, 17 and 20 DAA using a scale of 0-6 (0: no visible effect, 6: maximum effect). […]

[2] = system: Arabidopsis thaliana; assay: HTPS - Dicot - Pre-emergence; format: in vivo; conditions: N/A: not active; for Emax: read-out: HTPS - Dicot - Pre Max effect
How it was run: (§4)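 Pre-emergence: compound in 50% acetone applied at 30 μL/well onto sown sand (Arabidopsis or Eragrostis teff), max 1.5 Kg/Ha, 2.5-fold dilutions. Green area imaged by RGB, normalized to give % inhibition; ED50, ED75, ED90 from log-dose curves, t-test versus controls.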

[3] = system: Eragrostis teff; assay: HTPS - Monocot - Pre-emergence; format: in vivo; conditions: N/A: not active; for Emax: read-out: HTPS - Monocot - Pre Max effect
How it was run: as §4

[4] = in vitro thermal shift (binding of compound to the target); conditions: thermal shift caused by binding of the compound to the (unnamed) target
[5] = system: ABUTH; assay: In-planta LTP post-emergence, visual phenotype; format: in vivo, Abutilon theophrasti; conditions: dicot
Experimental: as §1, §2, §3

[6] = system: ALOMY; assay: In-planta LTP pre-emergence, visual phenotype; format: in vivo, Alopecurus myosuroides; conditions: monocot
Experimental: (§5) A basic panel of 8 weed species (Table 3) were sowed in 4×4×7 cm plastic pots containing inert sand (Sweet sand), intensively washed using osmosis water. Each specie was sowed in a separate pot. In each pot 10-15 seeds were sowed according to the specie viability. Sowing was performed one day before application. The plants were grown for 21 days in a controlled greenhouse (26±2° C. day 20±2° C. night). Hood irrigation (tap water+Shefer 5:3:8 8 mM) was given at a 50% water content by weight. Compounds were soluble in water (DDW), and commercial herbicide control was soluble in formulation B (Table 4). Application was conducted with an industrial sprayer (TeeJet 6502E nozzle) at a rate of 2 kg/ha and spray volume of […]. Pre-emergence advanced dose response experiment application was conducted at six rates between 1-0.0312 kg/ha and spray volume of […]. Percentage of emergence was evaluated at 15 DAA. Visual phenotyping was recorded using a scale of 0-6 (0: no visible effect, 6: maximum effect) at 18 DAA. All experiments included an untreated control, a solvent control and a positive control (commercial herbicide A.I.). Statistical analysis for visual phenotyping determined by a median value of ≥3.5 and Fisher test (pval≤0.05). Statistical analysis for plant emergence determined by % emergence ≥50 and T test (pval≤0.05), as well as Wilcox test (pval≤0.05).

[7] = system: SETVI; assay: In-planta LTP post-emergence, visual phenotype; format: in vivo, Setaria viridis; conditions: monocot
Experimental: as §1, §2, §3

[8] = system: POAAN; assay: In-planta LTP post-emergence, visual phenotype; format: in vivo, Poa annua; conditions: monocot
Experimental: as §1, §2, §3

[9] = system: MATCA; assay: In-planta LTP pre-emergence, visual phenotype; format: in vivo, Matricaria chamomilla; conditions: dicot
Experimental: as §5

For CC(N)COc1cccc(C(=O)O)c1 (centres unmarked) [Compound 106], the “IG Inhibited growth (% effect)” value [1] was “IG^1 (60) %”, the “HTPS - Dicot - Pre ED50” value [2] was 33 g/ha and the Emax [2] was 100%. For the same compound, the “HTPS - Monocot - Pre ED50” value [3] was 380 g/ha, the Emax [3] was 87% and the “in vitro Thermal Shift” value [4] was 13 °C. The “BL Bleaching (% effect)” value [5] was “BL (60) %”.

With C#CCOC(=O)c1cccc(OCC(C)N)c1 (centres unmarked) [Compound 111] the “HTPS - Dicot - Pre ED50” value [2] was 24 g/ha, the Emax [2] was 100% and the “IG Inhibited growth (% effect)” value [6] was “IG (40) %”. For the same compound, the “IG Inhibited growth (% effect)” value [7] was “IG (60) %”, the “in vitro Thermal Shift” value [4] was 4 °C and the “BL Bleaching (% effect)” value [5] was “BL (40) %”.

In the case of C[C@@H](N)COc1cccc(C(=O)O)c1 [Compound 154], the “IG Inhibited growth (% effect)” value [8] is reported as “IG (60) %”, the “BL Bleaching (% effect)” value [6] is reported as “BL (60) %” and the “DAB Disturbed apical bud (% effect)” value [6] is reported as “DAB (60), %”. The “DE Disturbed emergence (% effect)” value [6] was “DE (40), %”, the “IG Inhibited growth (% effect)” value [6] was “IG (80), %” and the “IG Inhibited growth (% effect)” value [7] was “IG (60) %”. For the same compound, the “HTPS - Monocot - Pre ED50” value [3] was 150 g/ha, the Emax [3] was 100% and the “in vitro Thermal Shift” value [4] was 13 °C.

With CCCCOC(=O)c1cccc(OCC(C)N)c1 (centres unmarked) [Compound 112] the “HTPS - Dicot - Pre ED50” value [2] was 20 g/ha, the Emax [2] was 100% and the “in vitro Thermal Shift” value [4] was 4 °C. For the same compound, the “IG Inhibited growth (% effect)” value [9] was “IG (60) %”.
